Converted amounts (≈) assume the structure as drawn. A value given as a limit tells only on which side of the number the result lay.

This passage reports MIC and Solubility results from patent US8318684B2, “Antibiotics, bispolides A1, A2, and A3 as well as bispolides B1, B2a, B2b and B3 and processes for producing said antibiotics” (Nimura Genetic Solutions Co., Ltd., priority 2006, dated 2012).

The test system of series [1] is Bacillus subtilis PCI 219. Description: Antibacterial spectrum, standard serial dilution method in liquid medium. The class given is cell-based. Conditions: PCI219, bacto-yeast nitrogen base-glucose-NZ-amine liquid medium, read-out: Minimum growth inhibitory concentration. The protocol: (§1) The antibacterial spectra of a bispolide A compound and a bispolide B compound were tested on a liquid medium consisting of bacto-yeast nitrogen base (a product of Difco Laboratories)-glucose-NZ-amine by a standard serial dilution method.

Series [2] concerns MRSA ngs1 (methicillin-resistant strain of Staphylococcus aureus). Described as above. The class given is cell-based. Conditions: bacto-yeast nitrogen base-glucose-NZ-amine liquid medium, read-out: Minimum growth inhibitory concentration. How it is done: as §1
The subject of series [3] is MRSA ngs2 (methicillin-resistant strain of Staphylococcus aureus). The series is described as above. The following applies: bacto-yeast nitrogen base-glucose-NZ-amine liquid medium, read-out: Minimum growth inhibitory concentration. The class given is cell-based. The protocol:
as §1

Series [4] concerns Staphylococcus aureus FDA209P. The series is described as above. Format: cell-based. Conditions: bacto-yeast nitrogen base-glucose-NZ-amine liquid medium, read-out: Minimum growth inhibitory concentration. The protocol: as §1
Series [5] is described as follows: Solubility (physicochemical properties).
Setting [6] is: in 50% aqueous ethanol (ethanol:water 1:1 by volume).
Where [7] appears, read: in methanol, ethanol, dimethylsulfoxide (DMSO), acetone and ethyl acetate.

Take `CCC1=C\C=C\C(CC)C(C(C)C(O)CC2(OC)CC(OC3CC(O)C(O)C(C)O3)C(CC)C(C)O2)OC(=O)/C=C/C(CC)=C/C=C/C(CC)C(C(C)C(O)CC2(O)CC(OC3CC(O)C(O)C(C)O3)C(CC)C(C)O2)OC(=O)\C=C\1` (stereo not shown) [bispolide A2]: the MIC in series [1] was 0.78 µg/mL (≈ 0.68 µM); in series [2] it was 1.56 µg/mL (≈ 1.36 µM); in series [3] it was 3.13 µg/mL (≈ 2.73 µM); in series [4] it was 1.56 µg/mL (≈ 1.36 µM). Moreover, the Solubility result in series [5] (setting [6]) is reported as “sparlingly soluble”; in series [5] (setting [7]), “Soluble well”; in series [5] (in water and n-hexane), “insoluble”.
For the compound `CCC1=C\C=C\C(CC)C(C(C)C(O)CC2(O)CC(OC3OC(C)C(O)C(O)C3O)C(CC)C(C)O2)OC(=O)/C=C/C(CC)=C/C=C/C(CC)C(C(C)C(O)CC2(O)CC(OC3CC(O)C(O)C(C)O3)C(CC)C(C)O2)OC(=O)\C=C\1` (stereo not shown) [bispolide B1], the MIC in series [1] was 0.2 µg/mL (≈ 0.174 µM); in series [2], 0.39 µg/mL (≈ 0.339 µM); in series [3] it was at most 0.049 µg/mL; in series [4], 1.56 µg/mL (≈ 1.36 µM). The Solubility entry in series [5] (setting [6]) is recorded as “sparingly soluble”; in series [5] (setting [7]) it was “Soluble well”; in series [5] (in water and n-hexane), “insoluble”.
Regarding `CCC1=C\C=C\C(CC)C(C(C)C(O)CC2(OC)CC(OC3CC(O)C(O)C(C)O3)C(CC)C(C)O2)OC(=O)/C=C/C(CC)=C/C=C/C(CC)C(C(C)C(O)CC2(O)CC(OC3OC(C)C(O)C(O)C3O)C(CC)C(C)O2)OC(=O)\C=C\1` (stereo not shown) [bispolide B2a], the MIC in series [1] is 0.39 µg/mL (≈ 0.335 µM); in series [2] it was 1.56 µg/mL (≈ 1.34 µM); in series [3], 1.56 µg/mL (≈ 1.34 µM); in series [4] it was 1.56 µg/mL (≈ 1.34 µM). Besides, the Solubility result in series [5] (setting [6]) is recorded as “sparingly soluble”; in series [5] (setting [7]), “Soluble well”; in series [5] (in water and n-hexane), “insoluble”.
As for `CCC1=C\C=C\C(CC)C(C(C)C(O)CC2(OC)CC(OC3OC(C)C(O)C(O)C3O)C(CC)C(C)O2)OC(=O)/C=C/C(CC)=C/C=C/C(CC)C(C(C)C(O)CC2(O)CC(OC3CC(O)C(O)C(C)O3)C(CC)C(C)O2)OC(=O)\C=C\1` (stereo not shown) [bispolide B2b], the MIC in series [1] was 0.39 µg/mL (≈ 0.335 µM); in series [2], 1.56 µg/mL (≈ 1.34 µM); in series [3], 3.13 µg/mL (≈ 2.69 µM); in series [4] it was 0.78 µg/mL (≈ 0.67 µM). Further, the Solubility result in series [5] (setting [6]) is “sparingly soluble”; in series [5] (setting [7]), “Soluble well”; in series [5] (in water and n-hexane), “insoluble”.
For `CCC1=C\C=C\C(CC)C(C(C)C(O)CC2(OC)CC(OC3CC(O)C(O)C(C)O3)C(CC)C(C)O2)OC(=O)/C=C/C(CC)=C/C=C/C(CC)C(C(C)C(O)CC2(OC)CC(OC3CC(O)C(O)C(C)O3)C(CC)C(C)O2)OC(=O)\C=C\1` (stereo not shown) [bispolide A3], the MIC in series [1] is 0.78 µg/mL (≈ 0.672 µM); in series [2], 1.56 µg/mL (≈ 1.34 µM); in series [3], 3.13 µg/mL (≈ 2.69 µM); in series [4], 1.56 µg/mL (≈ 1.34 µM). Further, the Solubility result is recorded as “sparlingly soluble” in series [5] (setting [6]); “Soluble well” in series [5] (setting [7]); “insoluble” in series [5] (in water and n-hexane).
On to `CCC1=C\C=C\C(CC)C(C(C)C(O)CC2(OC)CC(OC3OC(C)C(O)C(O)C3O)C(CC)C(C)O2)OC(=O)/C=C/C(CC)=C/C=C/C(CC)C(C(C)C(O)CC2(OC)CC(OC3CC(O)C(O)C(C)O3)C(CC)C(C)O2)OC(=O)\C=C\1` (stereo not shown) [bispolide B3], for which the MIC in series [1] is 0.78 µg/mL (≈ 0.662 µM); in series [2] it was 1.56 µg/mL (≈ 1.32 µM); in series [3], 3.13 µg/mL (≈ 2.66 µM); in series [4], 1.56 µg/mL (≈ 1.32 µM). Besides, the Solubility entry is “sparingly soluble” in series [5] (setting [6]); “Soluble well” in series [5] (setting [7]); “insoluble” in series [5] (in water and n-hexane).
As to `CCC1=C\C=C\C(CC)C(C(C)C(O)CC2(O)CC(OC3CC(O)C(O)C(C)O3)C(CC)C(C)O2)OC(=O)/C=C/C(CC)=C/C=C/C(CC)C(C(C)C(O)CC2(O)CC(OC3CC(O)C(O)C(C)O3)C(CC)C(C)O2)OC(=O)\C=C\1` (stereo not shown) [bispolide A1], the MIC in series [1] is 0.39 µg/mL (≈ 0.344 µM); in series [2], 12.5 µg/mL (≈ 11 µM); in series [3] it was at most 0.049 µg/mL; in series [4], 1.56 µg/mL (≈ 1.38 µM). Moreover, the Solubility entry in series [5] (setting [6]) is reported as “sparlingly soluble”; in series [5] (setting [7]), “Soluble well”; in series [5] (in water and n-hexane), “insoluble”.
